Reference: patent publication US20230021448A1, “COMPOUNDS AND COMPOSITIONS FOR TREATING CONDITIONS ASSOCIATED WITH STING ACTIVITY” (IFM Due, Inc., priority 2019, published 2023)

Molecular target: T1, STING (Homo sapiens, UniProt Q86WV6, G230A/H232R/R293Q/R71H)
T1 construct: host or cells: THP1-Dual KO-IFNAR2 cells
Assay: STING reporter assay: luciferase reporter activity in THP1-Dual KO-IFNAR2 cells stimulated with 2'3'cGAMP
Format: cell-based
Details: 2′3′cGAMP 15 μM final, 24h, read-out: hSTING: EC50
Description: STING pathway activation by the compounds described herein was measured using THIP1-Dua1™ cells (KO-IFNAR2).
TTIP1-Dual™ KO-IFNAR2 Cells (obtained from invivogen) were maintained in RPMI, 10% FCS, 5 ml P/S, 2 mM L-glut, 10 mM Hepes, and 1 mM sodium pyruvate. Compounds were spotted in empty 384 well tissue culture plates (Greiner 781182) by Echo for a final concentration of 0.0017-100 μM. Cells were plated into the TC plates at 40 μL per well, 2×10E6 cells/mL. For activation with STING ligand, 2′3′cGAMP (MW 718.38, obtained from Invivogen), was prepared in Optimem media.
The following solutions were prepared for each 1×384 plate: • Solution A: 2 mL Optimem with one of the following stimuli: • […] • Solution B: 2 mL Optimem with 60 μL Lipofectamine 2000->Incubate 5 min at RT
2 mL of solution A and 2 ml Solution B was mixed and incubated for 20 min at room temperature (RT). 20 uL of transfection solution (A+B) was added on top of the plated cells, with a final 2′3′cGAMP concentration of 15 μM. The plates were then centrifuged immediately at 340 g for 1 minute, after which they were incubated at 37° C., 5% C02, >98% humidity for 24h. Luciferase reporter activity was then measured. EC50 values were calculated by using standard methods known in the art.
Luciferase reporter assay: 10 μL of supernatant from the assay was transferred to white 384-plate with flat bottom and squared wells. One pouch of QUANTI-Luc™ Plus was dissolved in 25 mL of water. 100 μL of QLC Stabilizer per 25 mL of QUANTI-Luc™ Plus solution was added. 50 μL of QUANTI-Luc™ Plus/QLC solution per well was then added. Luminescence was measured on a Platereader (e.g., Spectramax I3X (Molecular Devices GF3637001)).
Luciferase reporter activity was then measured. EC50 values were calculated by using standard methods known in the art.

T1 sequence (Q86WV6 whole entry R71H/G230A/H232R/R293Q): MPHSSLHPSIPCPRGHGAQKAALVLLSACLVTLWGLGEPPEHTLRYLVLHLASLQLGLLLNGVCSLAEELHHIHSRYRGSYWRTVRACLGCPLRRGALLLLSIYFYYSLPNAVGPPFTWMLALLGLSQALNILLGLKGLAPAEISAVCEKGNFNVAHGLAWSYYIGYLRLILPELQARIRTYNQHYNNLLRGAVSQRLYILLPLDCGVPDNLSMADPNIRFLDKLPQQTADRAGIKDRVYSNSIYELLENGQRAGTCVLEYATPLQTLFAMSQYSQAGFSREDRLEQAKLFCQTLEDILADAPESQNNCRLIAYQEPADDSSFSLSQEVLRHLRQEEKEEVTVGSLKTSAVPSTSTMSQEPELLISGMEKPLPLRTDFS

Structure (SMILES) | EC50
O=C(Nc1c[nH]c2cc(F)c(F)cc12)C(=O)NC1CCN(c2ccccc2)C1 (centres unmarked) [Compound 169] | 200 to 1000 nM
Cn1cc(NC(=O)C(=O)NCc2ccc(C(F)(F)F)c(Cl)c2)c2cc(F)c(F)cc21 [Compound 170] | 5000 to 100000 nM
O=C(NCc1ccc(C(F)(F)F)c(Cl)c1)C(=O)Nc1c[nH]c2ccccc12 [Compound 171] | 200 to 1000 nM
O=C(Nc1ccc(C(F)(F)F)cc1)C(=O)Nc1c[nH]c2cc(F)ccc12 [Compound 172] | 200 to 1000 nM
O=C(NCc1cnc(C(F)(F)F)c(Cl)c1)C(=O)Nc1c[nH]c2cc(F)c(F)cc12 [Compound 173] | 200 to 1000 nM
O=C(Nc1c[nH]c2cc(F)c(F)cc12)C(=O)N[C@H]1CC[C@H](OCC(F)F)CC1 [Compound 174] | 200 to 1000 nM
O=C(Nc1ccc(C2CCC(F)(F)CC2)nc1)C(=O)Nc1c[nH]c2cc(F)c(F)cc12 [Compound 175] | 200 to 1000 nM
O=C(NC[C@@H]1CC12CCCCC2)C(=O)Nc1c[nH]c2cc(F)c(F)cc12 [Compound 176] | 200 to 1000 nM
O=C(NC[C@H]1CC12CCCCC2)C(=O)Nc1c[nH]c2cc(F)c(F)cc12 [Compound 177] | 40 to 200 nM
O=C(Nc1c[nH]c2cc(F)c(F)cc12)C(=O)NC1CCC(OCC(F)F)CC1 (centres unmarked) [Compound 178] | 200 to 1000 nM
O=C(NCCC1CCC(F)(F)CC1)C(=O)Nc1c[nH]c2ccccc12 [Compound 179] | 1000 to 5000 nM
O=C(Nc1ccc(C(F)(F)F)cc1)C(=O)Nc1c[nH]c2ccc(F)c(F)c12 [Compound 180] | 200 to 1000 nM
O=C(Nc1ccc(C(F)(F)F)c(Cl)c1)C(=O)Nc1c[nH]c2cc(F)c(F)cc12 [Compound 181] | 200 to 1000 nM
C#Cc1ccc(NC(=O)C(=O)Nc2c[nH]c3cc(F)c(F)cc23)cc1 [Compound 182] | 200 to 1000 nM
Cc1cc(NC(=O)C(=O)Nc2c[nH]c3ccccc23)cc(C(F)(F)F)c1 [Compound 183] | 200 to 1000 nM
O=C(Nc1ccc(C(F)(F)F)cc1)C(=O)Nc1c[nH]c2ccc(F)cc12 [Compound 184] | 200 to 1000 nM
CC[C@H]1CC[C@@H](NC(=O)C(=O)Nc2c[nH]c3cc(F)c(F)cc23)CC1 [Compound 185] | 200 to 1000 nM
CC[C@H]1CC[C@H](NC(=O)C(=O)Nc2c[nH]c3cc(F)c(F)cc23)CC1 [Compound 186] | 40 to 200 nM
O=C(Nc1c[nH]c2cc(F)c(F)cc12)C(=O)N[C@H]1CC[C@@H](OCC(F)F)CC1 [Compound 187] | 1000 to 5000 nM
O=C(NCCC12C[C@H]3C[C@@H](C1)C[C@@H](C2)C3)C(=O)Nc1c[nH]c2cc(F)c(F)cc12 [Compound 188] | 200 to 1000 nM
O=C(NCC1CC12CCCCC2)C(=O)Nc1c[nH]c2cc(F)c(F)cc12 (centres unmarked) [Compound 189] | 200 to 1000 nM
O=C(NCCC1CC2CCC1C2)C(=O)Nc1c[nH]c2cc(F)c(F)cc12 (centres unmarked) [Compound 190] | 200 to 1000 nM
CC(C)(C)C1CCC(NC(=O)C(=O)Nc2c[nH]c3cc(F)c(F)cc23)CC1 (centres unmarked) [Compound 191] | 200 to 1000 nM
O=C(Nc1c[nH]c2cc(F)c(F)cc12)C(=O)N1CCCC(Oc2ccc(C(F)(F)F)cc2)C1 (centres unmarked) [Compound 195] | 200 to 1000 nM
Cc1ccc(O[C@H]2C[C@H](NC(=O)C(=O)Nc3c[nH]c4cc(F)c(F)cc34)C2)cn1 [Compound 196] | 200 to 1000 nM

Structure (SMILES) | EC50
O=C(Nc1c[nH]c2cc(F)c(F)cc12)C(=O)N[C@H]1C[C@H](Nc2ccc(C(F)(F)F)cn2)C1 [Compound 197] | 200 to 1000 nM
O=C(Nc1c[nH]c2cc(F)c(F)cc12)C(=O)N[C@H]1C[C@@H](Oc2ccc(C(F)(F)F)nc2)C1 [Compound 198] | 200 to 1000 nM
Cc1ccc(O[C@H]2C[C@H](NC(=O)C(=O)Nc3c[nH]c4cc(F)c(F)cc34)C2)nc1 [Compound 199] | 40 to 200 nM
O=C(NCCCOc1ccc(C(F)(F)F)nc1)C(=O)Nc1c[nH]c2cc(F)c(F)cc12 [Compound 200] | 200 to 1000 nM
O=C(Nc1c[nH]c2cc(F)c(F)cc12)C(=O)N[C@H]1C[C@H](Oc2cncc(C(F)(F)F)c2)C1 [Compound 201] | 200 to 1000 nM
O=C(Nc1c[nH]c2cc(F)c(F)cc12)C(=O)N[C@H]1CC[C@H](Nc2ccccn2)CC1 [Compound 202, N-(5,6-difluoro-1H-indol-3-yl)-N′-[trans-4-(pyridin-2-ylamino)cyclohexyl]ethanediamide] | 5000 to 100000 nM
O=C(NCC(=O)N1CCc2cccnc21)C(=O)Nc1c[nH]c2cc(F)c(F)cc12 [Compound 203] | 200 to 1000 nM
O=C(NCC(=O)N1CCc2ccc(C(F)(F)F)cc21)C(=O)Nc1c[nH]c2cc(F)c(F)cc12 [Compound 204] | 40 to 200 nM
O=C(Nc1c[nH]c2cc(F)c(F)cc12)C(=O)NC1CC2CCC(C1)C2Oc1ccc(C(F)(F)F)cc1 (centres unmarked) [Compound 205] | 1000 to 5000 nM
CC(C)(CO)CCCN1CCN(C(=O)C(=O)Nc2c[nH]c3cc(F)c(F)cc23)CC1 [Compound 206] | 5000 to 100000 nM
O=C(Nc1c[nH]c2ccc(Cl)cc12)C(=O)N[C@H]1C[C@H](Nc2ccccn2)C1 [Compound 208] | 1000 to 5000 nM
O=C(Nc1c[nH]c2cc(F)c(Cl)cc12)C(=O)N[C@H]1CC[C@H](Oc2ccc(C(F)(F)F)cn2)CC1 [Compound 209, N-(5-chloro-6-fluoro-1H-indol-3-yl)-N′-(trans-4-((5-(trifluoromethyl)pyridin-2-yl)oxy)cyclohexyl)oxalamide] | 200 to 1000 nM
O=C(Nc1c[nH]c2cc(F)c(F)cc12)C(=O)N[C@H]1C[C@H](Oc2ccc(C(F)(F)F)cn2)C1 [Compound 210] | 200 to 1000 nM
O=C(Nc1c[nH]c2cc(F)c(F)cc12)C(=O)N[C@H]1CC[C@H](NCC(F)(F)F)CC1 [Compound 211] | 1000 to 5000 nM
O=C(Nc1c[nH]c2ccc(Cl)cc12)C(=O)N[C@H]1C[C@H](Oc2ccccn2)C1 [Compound 212] | 200 to 1000 nM
O=C(Nc1c[nH]c2ccc(Cl)cc12)C(=O)N[C@H]1CC[C@H](Oc2ccc(C(F)(F)F)cc2)CC1 [Compound 213, N-(5-chloro-1H-indol-3-yl)-N′-(trans-4-(4-(trifluoromethyl)phenoxy)cyclohexyl)oxalamide] | 40 to 200 nM
N#Cc1cc(F)c2[nH]cc(NC(=O)C(=O)NCc3ccc(C(F)(F)F)c(Cl)c3)c2c1 [Compound 215] | 200 to 1000 nM
O=C(Nc1c[nH]c2cc(F)c(F)cc12)C(=O)N1CCN(CCc2ccc(C(F)(F)F)cc2)CC1 [Compound 216] | 1000 to 5000 nM
O=C(Nc1c[nH]c2cc(F)c(F)cc12)C(=O)NC1CCC(Oc2ccc(C(F)(F)F)cc2)C1 (centres unmarked) [Compound 217] | 200 to 1000 nM
O=C(Nc1c[nH]c2cc(F)c(F)cc12)C(=O)NC1CC(Oc2ccc(C(F)(F)F)cc2)C1 (centres unmarked) [Compound 218] | 200 to 1000 nM
CN1CCOc2cc(NC(=O)C(=O)Nc3c[nH]c4cc(F)c(F)cc34)cnc21 [Compound 219] | 1000 to 5000 nM
O=C(Nc1c[nH]c2cc(F)c(F)cc12)C(=O)NC1CCC(Oc2ccc(C(F)(F)F)cn2)C1 (centres unmarked) [Compound 221] | 200 to 1000 nM
O=C(Nc1c[nH]c2cc(F)c(F)cc12)C(=O)N[C@H]1CC[C@@H](Oc2ccc(C(F)(F)F)nc2)CC1 [Compound 222] | 200 to 1000 nM
O=C(Nc1c[nH]c2cc(F)c(F)cc12)C(=O)N[C@H]1CC[C@H](Oc2ccc(C(F)(F)F)nc2)CC1 [Compound 223, N-(5,6-difluoro-1H-indol-3-yl)-N′-[trans-4-[[6-(trifluoromethyl)pyridin-3-yl]oxy]cyclohexyl]ethanediamide] | 200 to 1000 nM
O=C(Nc1c[nH]c2cc(F)c(F)cc12)C(=O)NC1CCC(Oc2ccc(C(F)(F)F)nc2)CC1 (centres unmarked) [Compound 224] | 40 to 200 nM
